Source: ChEMBL document CHEMBL4813924, “Isolation and Pharmacological Characterization of Six Opioidergic Picralima nitida Alkaloids” (J Nat Prod, 2021)
Active and inactive are the calls of the source. No cut-off for these calls is given here.

Legend:
D(1B) dopamine receptor [1] = molecular target: T1, D(1B) dopamine receptor (Homo sapiens, UniProt P21918); experiment: Displacement of [3H]-SCH23390 from dopamine D5 receptor (unknown origin) expressed in HEK-293T cells at 10 uM; format: cell-based
T1 sequence (P21918 whole entry): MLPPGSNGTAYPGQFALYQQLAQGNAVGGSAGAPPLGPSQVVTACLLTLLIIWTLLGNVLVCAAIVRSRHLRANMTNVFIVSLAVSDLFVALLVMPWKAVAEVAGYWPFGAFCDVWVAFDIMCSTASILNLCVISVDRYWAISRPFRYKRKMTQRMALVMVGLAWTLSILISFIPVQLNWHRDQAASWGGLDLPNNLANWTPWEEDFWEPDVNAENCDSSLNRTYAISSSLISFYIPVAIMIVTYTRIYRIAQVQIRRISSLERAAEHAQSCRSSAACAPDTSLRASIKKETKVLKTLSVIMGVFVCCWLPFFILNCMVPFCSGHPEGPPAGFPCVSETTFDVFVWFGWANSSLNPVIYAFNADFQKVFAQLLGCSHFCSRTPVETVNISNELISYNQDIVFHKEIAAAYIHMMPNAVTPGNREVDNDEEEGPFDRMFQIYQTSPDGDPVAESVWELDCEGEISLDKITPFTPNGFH

[2] = molecular target: Sodium-dependent serotonin transporter (Homo sapiens) (UniProt P31645); experiment: Displacement of [3H]-citalopram from SERT (unknown origin) expressed in HEK cells at 10 uM relative to control; format: cell-based
Sodium-dependent serotonin transporter (Homo sapiens), sequence (P31645 whole entry, looked up): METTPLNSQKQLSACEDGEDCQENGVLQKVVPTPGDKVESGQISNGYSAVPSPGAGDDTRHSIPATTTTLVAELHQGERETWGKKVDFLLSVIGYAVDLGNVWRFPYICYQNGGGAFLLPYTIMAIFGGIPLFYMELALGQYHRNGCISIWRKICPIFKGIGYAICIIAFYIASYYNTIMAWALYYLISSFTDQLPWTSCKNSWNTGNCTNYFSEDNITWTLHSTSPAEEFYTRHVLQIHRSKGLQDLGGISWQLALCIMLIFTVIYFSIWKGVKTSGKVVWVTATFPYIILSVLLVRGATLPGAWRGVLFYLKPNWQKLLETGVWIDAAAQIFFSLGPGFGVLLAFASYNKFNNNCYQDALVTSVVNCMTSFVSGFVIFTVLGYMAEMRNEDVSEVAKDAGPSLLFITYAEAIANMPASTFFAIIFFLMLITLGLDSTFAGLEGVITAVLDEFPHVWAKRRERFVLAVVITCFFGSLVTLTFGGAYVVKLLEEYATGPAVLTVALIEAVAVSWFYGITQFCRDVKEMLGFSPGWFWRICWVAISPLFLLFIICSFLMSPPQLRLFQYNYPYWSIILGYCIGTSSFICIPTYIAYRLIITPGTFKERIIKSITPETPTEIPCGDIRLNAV

[3] = molecular target: Histamine H3 receptor (Homo sapiens) (UniProt Q9Y5N1); experiment: Displacement of [3H]-alpha-methylhistamine from histamine H3 receptor (unknown origin) expressed in Flp-In-293 cells at 10 uM relative to control; format: cell-based
Histamine H3 receptor (Homo sapiens), sequence (Q9Y5N1 whole entry): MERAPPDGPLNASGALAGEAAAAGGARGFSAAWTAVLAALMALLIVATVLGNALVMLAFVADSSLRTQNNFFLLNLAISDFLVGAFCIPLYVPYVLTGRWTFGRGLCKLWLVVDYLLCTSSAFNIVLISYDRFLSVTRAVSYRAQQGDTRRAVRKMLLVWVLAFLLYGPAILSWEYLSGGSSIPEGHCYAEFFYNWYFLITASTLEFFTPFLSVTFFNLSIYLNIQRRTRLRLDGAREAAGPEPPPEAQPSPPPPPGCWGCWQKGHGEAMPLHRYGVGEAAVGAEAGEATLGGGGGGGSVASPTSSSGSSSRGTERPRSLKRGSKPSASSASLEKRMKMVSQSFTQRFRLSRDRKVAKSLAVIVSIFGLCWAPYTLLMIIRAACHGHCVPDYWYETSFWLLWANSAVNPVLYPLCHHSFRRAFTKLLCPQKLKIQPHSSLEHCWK

[4] = molecular target: T2, Kappa-type opioid receptor (Homo sapiens, UniProt P41145); experiment: Displacement of [3H]-U69593 from kappa opioid receptor (unknown origin) expressed in HEK cells at 10 uM; format: cell-based; conditions: filed as agonist
T2 sequence (P41145 whole entry): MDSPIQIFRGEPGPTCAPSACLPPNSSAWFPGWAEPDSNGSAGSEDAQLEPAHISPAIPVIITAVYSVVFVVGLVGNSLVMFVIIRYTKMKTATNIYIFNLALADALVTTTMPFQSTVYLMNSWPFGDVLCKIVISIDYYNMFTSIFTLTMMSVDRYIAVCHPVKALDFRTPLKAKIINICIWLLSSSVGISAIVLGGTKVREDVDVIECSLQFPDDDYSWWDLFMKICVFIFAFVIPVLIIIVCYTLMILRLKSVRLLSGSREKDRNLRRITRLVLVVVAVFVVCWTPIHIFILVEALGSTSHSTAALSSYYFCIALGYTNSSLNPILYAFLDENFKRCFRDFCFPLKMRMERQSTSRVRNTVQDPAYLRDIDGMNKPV

[5] = molecular target: T3, Delta-type opioid receptor (Homo sapiens, UniProt P41143); experiment: Displacement of [3H]-DADLE from delta opioid receptor (unknown origin) expressed in HEK cells at 10 uM; format: cell-based; conditions: filed as agonist
T3 sequence (P41143 whole entry): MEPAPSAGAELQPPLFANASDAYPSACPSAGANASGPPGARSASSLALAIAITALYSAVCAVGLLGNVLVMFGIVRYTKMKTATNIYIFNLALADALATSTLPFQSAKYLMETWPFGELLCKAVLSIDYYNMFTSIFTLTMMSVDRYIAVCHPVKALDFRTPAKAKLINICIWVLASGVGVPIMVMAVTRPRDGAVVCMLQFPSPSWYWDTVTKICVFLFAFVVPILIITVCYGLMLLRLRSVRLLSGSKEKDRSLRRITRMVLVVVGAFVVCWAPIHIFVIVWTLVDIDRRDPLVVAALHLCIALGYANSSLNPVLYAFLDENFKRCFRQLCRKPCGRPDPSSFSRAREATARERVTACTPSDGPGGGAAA

Mu-type opioid receptor [6] = molecular target: T4, Mu-type opioid receptor (Homo sapiens, UniProt P35372); experiment: Displacement of [3H]-DAMGO from mu opioid receptor (unknown origin) expressed in HEK cells at 10 uM; format: cell-based
T4 sequence (P35372 whole entry): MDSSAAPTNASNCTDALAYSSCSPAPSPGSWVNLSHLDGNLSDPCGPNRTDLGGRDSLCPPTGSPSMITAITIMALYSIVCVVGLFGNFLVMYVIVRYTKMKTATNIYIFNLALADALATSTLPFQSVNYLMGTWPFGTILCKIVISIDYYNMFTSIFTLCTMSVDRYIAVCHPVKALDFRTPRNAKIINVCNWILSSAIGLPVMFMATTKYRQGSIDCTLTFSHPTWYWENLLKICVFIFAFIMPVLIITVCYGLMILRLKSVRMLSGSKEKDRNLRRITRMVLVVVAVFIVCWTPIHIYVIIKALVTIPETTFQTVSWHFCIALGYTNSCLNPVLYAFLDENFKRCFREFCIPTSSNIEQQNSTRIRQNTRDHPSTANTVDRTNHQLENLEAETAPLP

D(1B) dopamine receptor [7] = molecular target: T1, D(1B) dopamine receptor; experiment: Displacement of [3H]-SCH23390 from dopamine D5 receptor (unknown origin) expressed in HEK-293T cells assessed as inhibition constant; format: cell-based
Mu-type opioid receptor [8] = molecular target: T4, Mu-type opioid receptor; experiment: Displacement of [3H]-DAMGO from human mu opioid receptor expressed in CHO-K1 cells by radioligand binding assay; format: cell-based
[9] = molecular target: T2, Kappa-type opioid receptor; experiment: Displacement of [3H]-U69593 from human kappa opioid receptor expressed in U2OS cells by radioligand binding assay; format: cell-based
[10] = molecular target: T3, Delta-type opioid receptor; experiment: Displacement of [3H]-DPDPE from human delta opioid receptor expressed in CHO-K1 cells by radioligand binding assay; format: cell-based
Mu-type opioid receptor [11] = molecular target: Mu-type opioid receptor (Mus musculus, UniProt P42866); experiment: Agonist activity at mouse HA-tagged mu opioid receptor expressed in HEK293 cells assessed as inhibition of forskolin-induced cAMP production preincubated for 20 mins followed by forskolin stimulation and measured after 15 mins by Glo-sensor reagent based assay; format: functional, cell-based
Mu-type opioid receptor (Mus musculus, UniProt P42866), sequence (P42866 whole entry): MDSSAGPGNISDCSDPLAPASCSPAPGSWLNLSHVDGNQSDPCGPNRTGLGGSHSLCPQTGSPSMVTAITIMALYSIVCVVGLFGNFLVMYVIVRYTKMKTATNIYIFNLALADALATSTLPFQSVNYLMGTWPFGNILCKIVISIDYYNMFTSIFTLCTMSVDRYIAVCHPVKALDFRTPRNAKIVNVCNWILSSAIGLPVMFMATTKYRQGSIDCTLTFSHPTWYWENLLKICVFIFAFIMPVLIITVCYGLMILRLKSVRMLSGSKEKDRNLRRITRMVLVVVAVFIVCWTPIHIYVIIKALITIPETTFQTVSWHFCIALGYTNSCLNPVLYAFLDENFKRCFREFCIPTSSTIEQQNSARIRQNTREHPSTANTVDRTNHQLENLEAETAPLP

[12] = molecular target: Kappa-type opioid receptor (Mus musculus, UniProt P33534); experiment: Agonist activity at mouse FLAG-tagged kappa opioid receptor expressed in HEK293 cells assessed as inhibition of forskolin-induced cAMP production preincubated for 20 mins followed by forskolin stimulation and measured after 15 mins by Glo-sensor reagent based assay; format: functional, cell-based
Kappa-type opioid receptor (Mus musculus, UniProt P33534), sequence (P33534 whole entry): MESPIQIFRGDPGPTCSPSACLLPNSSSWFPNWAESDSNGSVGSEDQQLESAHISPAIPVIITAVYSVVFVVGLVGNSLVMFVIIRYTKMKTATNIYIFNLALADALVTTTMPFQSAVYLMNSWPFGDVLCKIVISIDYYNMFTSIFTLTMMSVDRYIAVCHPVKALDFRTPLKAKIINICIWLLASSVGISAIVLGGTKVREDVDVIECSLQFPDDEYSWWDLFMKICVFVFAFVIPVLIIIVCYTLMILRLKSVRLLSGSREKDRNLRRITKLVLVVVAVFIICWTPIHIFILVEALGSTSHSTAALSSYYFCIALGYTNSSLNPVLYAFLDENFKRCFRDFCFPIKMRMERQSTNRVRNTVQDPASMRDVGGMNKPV

[13] = molecular target: Delta-type opioid receptor (Mus musculus, UniProt P32300); experiment: Agonist activity at mouse FLAG-tagged delta opioid receptor expressed in HEK293 cells assessed as inhibition of forskolin-induced cAMP production preincubated for 20 mins followed by forskolin stimulation and measured after 15 mins by Glo-sensor reagent based assay; format: functional, cell-based
Delta-type opioid receptor (Mus musculus, UniProt P32300), sequence (P32300 whole entry): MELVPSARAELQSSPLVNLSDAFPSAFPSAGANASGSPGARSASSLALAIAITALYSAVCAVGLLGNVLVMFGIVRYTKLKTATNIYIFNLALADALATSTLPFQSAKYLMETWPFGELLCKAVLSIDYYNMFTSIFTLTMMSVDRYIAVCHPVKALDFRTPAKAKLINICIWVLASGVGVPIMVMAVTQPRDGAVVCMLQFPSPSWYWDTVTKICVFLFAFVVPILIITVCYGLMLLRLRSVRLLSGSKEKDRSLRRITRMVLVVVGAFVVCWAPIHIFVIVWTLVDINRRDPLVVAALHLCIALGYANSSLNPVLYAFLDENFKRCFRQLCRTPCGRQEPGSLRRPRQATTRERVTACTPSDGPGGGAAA

[14] = molecular target: Mu-type opioid receptor (Mus musculus) (UniProt P42866); experiment: Agonist activity at mouse HA-tagged mu opioid receptor expressed in HEK293 cells assessed as inhibition of forskolin-induced cAMP production preincubated for 20 mins followed by forskolin stimulation and measured after 15 mins by Glo-sensor reagent based assay relative to DAMGO; format: functional, cell-based; set-up: scale not given: the % may be the effect or the level left; conditions: filed as agonist
Mu-type opioid receptor (Mus musculus), sequence (P42866 whole entry): as the sequence (P42866 whole entry) above

[15] = molecular target: Kappa-type opioid receptor (Mus musculus) (UniProt P33534); experiment: Agonist activity at mouse FLAG-tagged kappa opioid receptor expressed in HEK293 cells assessed as inhibition of forskolin-induced cAMP production preincubated for 20 mins followed by forskolin stimulation and measured after 15 mins by Glo-sensor reagent based assay relative to U50488; format: functional, cell-based; set-up: scale not given: the % may be the effect or the level left; conditions: filed as agonist
Kappa-type opioid receptor (Mus musculus), sequence (P33534 whole entry): as the sequence (P33534 whole entry) above

[16] = molecular target: Delta-type opioid receptor (Mus musculus) (UniProt P32300); experiment: Agonist activity at mouse FLAG-tagged delta opioid receptor expressed in HEK293 cells assessed as inhibition of forskolin-induced cAMP production preincubated for 20 mins followed by forskolin stimulation and measured after 15 mins by Glo-sensor reagent based assay relative to Leu-Enk; format: functional, cell-based; set-up: scale not given: the % may be the effect or the level left; conditions: filed as agonist
Delta-type opioid receptor (Mus musculus), sequence (P32300 whole entry): as the sequence (P32300 whole entry) above

[17] = molecular target: T2, Kappa-type opioid receptor; experiment: Agonist activity at human kappa opioid receptor expressed in U2OS cells assessed as beta-arrestin2 recruitment incubated for 90 mins by PathHunter assay relative to U50488; format: functional, cell-based
Mus musculus [18] = experiment: Antinociceptive activity against C57Bl/6N mouse model of thermal-induced nociception at 3 mg/kg, sc measured at 110 mins by hot-plate test; format: functional, organism-based
Mus musculus [19] = experiment: Antinociceptive activity against C57Bl/6N mouse model of thermal-induced nociception at 10 mg/kg, sc measured at 50 mins by tail-flick test; format: functional, organism-based
Mus musculus [20] = experiment: Antinociceptive activity against C57Bl/6N mouse model of thermal-induced nociception at 30 mg/kg, sc measured at 30 mins by tail-flick test; format: functional, organism-based
[21] = molecular target: T2, Kappa-type opioid receptor; experiment: Agonist activity at human kappa opioid receptor expressed in U2OS cells assessed as beta-arrestin2 recruitment incubated for 90 mins by PathHunter assay; format: functional, cell-based
Mus musculus [22] = experiment: Antinociceptive activity against C57Bl/6N mouse model of thermal-induced nociception at 6 mg/kg, sc measured at 30 mins by tail-flick test; format: functional, organism-based
Mus musculus [23] = experiment: Antinociceptive activity against C57Bl/6N mouse model of thermal-induced nociception at 6 mg/kg, sc measured at 30 mins by hot-plate test; format: functional, organism-based

C/C=C1/CN2CC[C@]34C(=Nc5ccccc53)[C@@H]2C[C@@H]1[C@@]4(COC(C)=O)C(=O)OC
inhibition (D(1B) dopamine receptor [1]): Active | inhibition [2]: < 60% | inhibition [3]: < 60% | inhibition [4]: Active | inhibition [5]: Active | inhibition (Mu-type opioid receptor [6]): inactive | Ki (D(1B) dopamine receptor [7]): > 10 µM | Ki (Mu-type opioid receptor [8]): 30.7 µM | Ki [9]: 1.11 µM | Ki [10]: 60.3 µM | IC50 (Mu-type opioid receptor [11]): 18.7 µM | IC50 [12]: 2.71 µM | IC50 ([13]; read-out: IC50): 24.4 µM | Activity [14]: 50% | Activity [15]: 92% | Activity [16]: 90% | Activity [17]: 30%

C/C=C1/CN2[C@H]3Cc4c([nH]c5ccccc45)[C@@H]2C[C@@H]1[C@]3(CO)C(=O)OC
Ki (Mu-type opioid receptor [8]): 0.32 µM | Ki [9]: 14.2 µM | Ki [10]: 15 µM | IC50 (Mu-type opioid receptor [11]): 3.14 µM | IC50 ([13]; read-out: IC50): 15.4 µM | Activity (Mus musculus [18]): inactive | Activity (Mus musculus [19]): Active | Activity (Mus musculus [20]): Active | Activity [14]: 94% | Activity [16]: 90%

C/C=C1/CN2[C@@H]3C[C@@]45c6ccccc6N[C@]4(O3)[C@@H]2C[C@@H]1[C@@]5(COC(C)=O)C(=O)OC
inhibition (D(1B) dopamine receptor [1]): Active | inhibition [2]: < 60% | inhibition [3]: < 60% | inhibition [4]: Active | inhibition [5]: Active | inhibition (Mu-type opioid receptor [6]): inactive | Ki (D(1B) dopamine receptor [7]): > 10 µM | Ki (Mu-type opioid receptor [8]): 132 µM | Ki [9]: 2.38 µM | Ki [10]: 98.8 µM | IC50 (Mu-type opioid receptor [11]): 45 µM | IC50 [12]: 1.97 µM | Activity [15]: 92%

C/C=C1/CN2CC[C@@]34c5cc(O)ccc5N(C)[C@]35OC[C@@]4(C(=O)OC)[C@H]1C[C@H]25
inhibition (D(1B) dopamine receptor [1]): Active | inhibition [2]: < 60% | inhibition [3]: < 60% | Ki (D(1B) dopamine receptor [7]): > 10 µM | Ki [10]: 10.4 µM | IC50 [12]: 0.073 µM | IC50 ([13]; read-out: IC50): 20.3 µM

C/C=C1/CN2CC[C@]34C(=C(C(=O)OC)[C@H]1C[C@H]23)Nc1ccccc14 [AKUAMMICINE]
inhibition (D(1B) dopamine receptor [1]): Active | inhibition [2]: < 60% | inhibition [3]: < 60% | inhibition [4]: Active | inhibition [5]: Active | inhibition (Mu-type opioid receptor [6]; filed as agonist): Active | Ki (D(1B) dopamine receptor [7]): > 10 µM | Ki (Mu-type opioid receptor [8]): 3.31 µM | Ki [9]: 0.089 µM | Ki [10]: 23.2 µM | IC50 (Mu-type opioid receptor [11]): 8.24 µM | IC50 [12]: 0.24 µM | IC50 ([13]; read-out: IC50): 12.4 µM | IC50 ([13]; read-out: pIC50 (converted)): 12.6 µM | EC50 [21]: 39.8 µM | Activity [14]: 45% | Activity [15]: 84% | Activity [16]: 60% | Activity ([17]; filed as agonist): 50%

CN1CC[C@]23c4c5ccc(O)c4O[C@H]2[C@@H](O)C=C[C@H]3[C@H]1C5
Activity (Mus musculus [22]): Active | Activity (Mus musculus [23]): Active

C/C=C1/CN2CC[C@@]34c5ccccc5N(C)[C@]35OC[C@@]4(C(=O)OC)[C@H]1C[C@H]25
inhibition (D(1B) dopamine receptor [1]): Active | inhibition [2]: < 60% | inhibition [3]: < 60% | Ki (D(1B) dopamine receptor [7]): > 10 µM | Ki [10]: 8.37 µM | IC50 [12]: 6.46 µM | IC50 ([13]; read-out: IC50): 95.6 µM
